Measurements taken from patent US6592893B1, “Transdermal patch and topical compositions comprising propylnorapomorphine” (priority 1998, dated 2003).

Key:
[1] = accelerated stability test of the patch formulation; type: physicochemical; details: with antioxidant (sodium metabisulphite), 15 days at 40° C. and 75% RH
[2] = half-life compared with APO
[3] = in vitro cell permeation study with guinea-pig skin (Type III patch); type: in vitro ADME
Protocol: Then, three particular non-limiting examples of the pharmaceutical composition used to form the matrix of a Type III patch will be illustrated (FIG. 3). The Type III patch, containing a matrix made up of these three types of formulations, will then be “tested” on guinea-pig skin, to analyse the permeation of the active principle, both with regard to the accumulation of active principle over 48 hours (FIG. 4) and with regard to the flow (also over 48 hours, FIG. 5).

[4] = activity compared with APO; details: greater than that of APO
Protocol: For this reason, when said compounds are given at suitable doses over 24 hours, effects which are rather more beneficial than those of APO are obtained.

[5] = toxicity compared with APO
[6] = continuous subcutaneous infusion, 2-5 mg/hour; cited from earlier work
[7] = i.v., s.c., i.m., rectal, sublingual or intranasal route; cited from earlier work

SMILES | chemical stability in the formulation of the patch [1] | half-life relative to APO [2] | skin permeability [3] | activity relative to APO [4] | toxicity relative to APO [5] | local side effect at the infusion site [6] | latent period (attack) [7]
CCCN1CCc2cccc3c2[C@H]1Cc1ccc(O)c(O)c1-3.Cl [Compound (1), R(−)-propylnorapomorphine hydrochloride] | demonstrated | greater | sufficient | 10 times | lower | – | –
CN1CCc2cccc3c2[C@H]1Cc1ccc(O)c(O)c1-3 [Apomorphine] | – | – | – | – | – | subcutaneous granulomas form around the infusion site | about 15 ′
CCCN1CCc2cccc3c2[C@@H]1Cc1ccc(O)c(O)c1-3.Cl [Compound (2), S(+)-propylnorapomorphine hydrochloride] | – | greater | – | 10 times | lower | – | –
